Source: ChEMBL document CHEMBL5029155, “Design, Synthesis, and Biological Evaluation of Stable Colchicine-Binding Site Tubulin Inhibitors 6-Aryl-2-benzoyl-pyridines as Potential Anticancer Agents” (J Med Chem, 2021)
Active and inactive are the calls of the source. No cut-off for these calls is given here.

What was measured:
[1] = Anticlonogenic activity against paclitaxel resistant human A-375 cells assessed as inhibition of colony formation at 5 nM treated for 7 days by crystal violet staining based microscopic analysis; type: functional, A375/TxR; set-up: scale not given: the % may be the effect or the level left; settings: time 7 day
A-375 = assay: Antiproliferative activity against human A-375 cells assessed as cell growth inhibition incubated for 72 hrs by MTS assay; type: functional, cell-based; settings: A-375, 72 h
[2] = Systemic toxicity in human A375/TxR cells xenografted in SCID mouse tumor model assessed as pathological change in heart at 10 to 20 mg/kg, ip by H and E staining based analysis; type: organism-based; settings: in vivo, dose 10-20 mg/kg
[3] = Apparent volume of distribution during terminal phase in NSG mouse at 10 mg/kg, ip; type: ADME, organism-based; settings: in vivo, read-out: Vz/F
M14 = assay: Antiproliferative activity against human M14 cells assessed as cell growth inhibition incubated for 72 hrs by MTS assay; type: functional, cell-based; settings: M14, 72 h
Sus scrofa = organism: Sus scrofa; assay: Inhibition of porcine brain tubulin polymerization assessed as inhibition of microtubule polymerization at 10 uM measured for 1 hrs by microplate reader method
MDA-MB-231 [4] = assay: Cytotoxicity against human MDA-MB-231 cells measured after 72 hrs […]; type: functional, cell-based; settings: MDA-MB-231, 72 h
Salmonella typhimurium [5] = assay: Mutagenicity in Salmonella typhimurium TA1535 by Ames test; type: toxicity, organism-based; settings: salmonella enterica subsp. enterica serovar typhimurium
Salmonella typhimurium [6] = assay: Mutagenicity in Salmonella typhimurium TA98 by Ames test; type: toxicity, organism-based; settings: salmonella enterica subsp. enterica serovar typhimurium
[7] = Cytotoxicity against paclitaxel resistant human MDA-MB-231/TxR cells measured after 72 hrs […]; type: functional, cell-based
[8] = Antimetastatic activity against human A375/TxR cells xenografted in SCID mouse assessed as metastatic in liver at 10 mg/kg, ip; type: functional
[9] = Systemic toxicity in human A375/TxR cells xenografted in SCID mouse tumor model assessed as pathological change in lungs at 10 to 20 mg/kg, ip by H and E staining based analysis; type: organism-based; settings: in vivo, dose 10-20 mg/kg
A375/TxR [10] = assay: Induction of cell cycle arrest in human A375/TxR cells assessed as accumulation at G2/M phase measured for 24 hrs by PI staining based flow cytometry analysis; type: functional
MDA-MB-231 [11] = assay: Antiproliferative activity against human MDA-MB-231 cells assessed as cell growth inhibition incubated for 72 hrs by MTS assay; type: functional, cell-based; settings: MDA-MB-231, 72 h
[12] = Induction of apoptosis in human A375/TxR cells assessed as apoptotic cells at 5 nM measured for 24 hrs by annexin VFITC /PI staining based analysis (reference value: […]); type: functional
CYP3A [13] = assay: Inhibition of CYP3A in human liver microsomes using midazolam as substrate at 10 uM; type: ADME; settings: probe midazolam
[14] = Tmax in NSG mouse at 10 mg/kg, ip; type: ADME, organism-based; settings: in vivo
A375/TxR [15] = assay: Antimetastatic activity against human A375/TxR cells xenografted in SCID mouse assessed as metastatic in lungs; type: functional
Salmonella typhimurium [16] = assay: Mutagenicity in Salmonella typhimurium […] by Ames test; type: toxicity, organism-based; settings: salmonella enterica subsp. enterica serovar typhimurium
CYP2C19 = CYP2C19 (Homo sapiens, UniProt P33261); assay: Inhibition of CYP2C19 in human liver microsomes using omeprazole as substrate at 10 uM; type: ADME; settings: probe omeprazole
Sequence of CYP2C19 (P33261 whole entry): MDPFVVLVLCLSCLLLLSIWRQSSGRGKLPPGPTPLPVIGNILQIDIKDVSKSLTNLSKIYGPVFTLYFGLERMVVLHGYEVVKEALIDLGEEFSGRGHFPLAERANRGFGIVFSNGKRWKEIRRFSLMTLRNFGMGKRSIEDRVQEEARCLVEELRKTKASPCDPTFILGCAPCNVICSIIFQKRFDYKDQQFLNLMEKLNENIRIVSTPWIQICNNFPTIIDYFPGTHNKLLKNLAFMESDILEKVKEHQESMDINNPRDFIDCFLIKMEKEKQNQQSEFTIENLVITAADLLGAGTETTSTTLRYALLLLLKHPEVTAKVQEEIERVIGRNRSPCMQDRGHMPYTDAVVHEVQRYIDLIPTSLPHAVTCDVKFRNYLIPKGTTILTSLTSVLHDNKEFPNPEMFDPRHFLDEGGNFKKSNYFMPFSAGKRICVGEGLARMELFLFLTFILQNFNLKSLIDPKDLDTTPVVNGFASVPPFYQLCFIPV

[17] = Induction of cell cycle arrest in human A375/TxR cells assessed as accumulation at G2/M phase at 10 nM measured for 24 hrs by PI staining based flow cytometry analysis
CYP2D6 = CYP2D6 (Homo sapiens, UniProt P10635); assay: Inhibition of CYP2D6 in human liver microsomes using dextromethorphan as substrate at 10 uM; type: ADME; settings: probe dextromethorphan
Sequence of CYP2D6 (P10635 whole entry): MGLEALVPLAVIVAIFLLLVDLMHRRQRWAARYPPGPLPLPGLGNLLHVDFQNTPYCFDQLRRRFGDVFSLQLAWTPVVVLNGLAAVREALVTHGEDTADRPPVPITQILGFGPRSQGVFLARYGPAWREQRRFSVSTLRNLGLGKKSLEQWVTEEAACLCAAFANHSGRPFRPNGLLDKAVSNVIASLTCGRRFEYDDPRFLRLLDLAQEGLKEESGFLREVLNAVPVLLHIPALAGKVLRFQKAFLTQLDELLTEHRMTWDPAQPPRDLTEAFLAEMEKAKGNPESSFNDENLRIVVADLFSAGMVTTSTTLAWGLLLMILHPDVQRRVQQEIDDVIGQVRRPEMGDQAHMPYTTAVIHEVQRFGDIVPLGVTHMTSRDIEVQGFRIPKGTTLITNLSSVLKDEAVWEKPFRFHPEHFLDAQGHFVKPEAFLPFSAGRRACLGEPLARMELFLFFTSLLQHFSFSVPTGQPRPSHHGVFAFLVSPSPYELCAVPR

MDA-MB-453 = assay: Antiproliferative activity against human MDA-MB-453 cells assessed as cell growth inhibition incubated for 72 hrs by MTS assay; type: functional, cell-based; settings: MDA-MB-453, 72 h
[18] = Clearance in NSG mouse at 10 mg/kg, ip; type: ADME, organism-based; settings: in vivo
[19] = AUClast in NSG mouse at 10 mg/kg, ip; type: ADME, organism-based; set-up: time 0 - last, route intraperitoneal, dose 10 mg/kg; settings: in vivo
A375/TxR [20] = assay: Antimetastatic activity against human A375/TxR cells xenografted in SCID mouse assessed as metastatic in liver at 20 mg/kg, ip; type: functional, organism-based
CYP2C8 = target: T1, CYP2C8 (Homo sapiens, UniProt P10632); assay: Inhibition of CYP2C8 in human liver microsomes using amodiaquine as substrate at 10 uM; type: ADME; settings: probe amodiaquine
T1 sequence (P10632 whole entry): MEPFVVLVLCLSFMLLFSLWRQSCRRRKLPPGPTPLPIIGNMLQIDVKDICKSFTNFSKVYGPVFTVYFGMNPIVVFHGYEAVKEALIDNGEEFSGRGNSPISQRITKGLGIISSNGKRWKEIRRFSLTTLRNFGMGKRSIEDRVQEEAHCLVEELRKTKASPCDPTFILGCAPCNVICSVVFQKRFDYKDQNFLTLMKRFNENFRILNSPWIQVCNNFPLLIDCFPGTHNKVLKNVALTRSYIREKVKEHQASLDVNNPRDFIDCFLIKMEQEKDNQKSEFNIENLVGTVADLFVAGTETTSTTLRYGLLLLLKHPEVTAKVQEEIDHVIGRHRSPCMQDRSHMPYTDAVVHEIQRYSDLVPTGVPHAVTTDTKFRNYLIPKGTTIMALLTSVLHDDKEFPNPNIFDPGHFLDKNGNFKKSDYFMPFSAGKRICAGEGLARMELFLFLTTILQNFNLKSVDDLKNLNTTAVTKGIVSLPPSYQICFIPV

A375/TxR [21] = assay: Antitumor activity against human A375/TxR cells xenografted in SCID mouse assessed as tumor necrosis at 10 to 20 mg/kg, ip by H and E staining based analysis; type: functional, organism-based; settings: dose 10-20 mg/kg
[22] = Metabolic stability in mouse liver microsomes assessed as half life in presence of NADPH regenerating system by UPLC-MS analysis; type: ADME, Microsome; settings: microsomes
[23] = Systemic toxicity in human A375/TxR cells xenografted in SCID mouse tumor model assessed as pathological change in liver at 10 to 20 mg/kg, ip by H and E staining based analysis; type: organism-based; settings: in vivo, dose 10-20 mg/kg
CYP3A [24] = assay: Inhibition of CYP3A in human liver microsomes using testosterone as substrate at 10 uM; type: ADME; settings: probe testosterone
A375/TxR [25] = assay: Induction of cell cycle arrest in human A375/TxR cells assessed as decrease in accumulation at S phase measured for 24 hrs by PI staining based flow cytometry analysis; type: functional

For `COc1cc(C(=O)c2nc(-c3ccc(C)c(O)c3)ccc2F)cc(OC)c1OC`, the Activity [1] was 95%, the IC50 (A-375) was 1.8 nM and the Activity [2] was “Non-Toxic”. The Vd/F [3] was 12.3 L/kg, the IC50 (M14) was 1.9 nM and the inhibition (Sus scrofa) was “Active”. The IC50 (MDA-MB-231 [4]) was 5.8 nM, the Activity (Salmonella typhimurium [5]) was “Non-Toxic” and the Activity (Salmonella typhimurium [6]) was “Non-Toxic”. The IC50 [7] was 2.1 nM, the Activity [8] was 33% and the Activity [9] was “Non-Toxic”. For the same compound, the Activity (A375/TxR [10]) was “Dose-Dependent Effect”, the IC50 (MDA-MB-231 [11]) was 2.2 nM and the Activity [12] was 45.4%. The inhibition at 10 µM (CYP3A [13]) was 34.7%, the Tmax [14] was 10.2 min and the Activity (A375/TxR [15]) was “Dose-Dependent Effect”. The Activity (Salmonella typhimurium [16]) was “Non-Toxic”, the inhibition at 10 µM (CYP2C19) was 49% and the Activity [17] was 62%. The inhibition at 10 µM (CYP2D6) was 11.9%, the IC50 (MDA-MB-453) was 1.4 nM and the CL/F [18] was 34.1 mL/min/kg. The AUClast [19] was 4872.07 h/ng/mL, the Activity (A375/TxR [20]) was “inactive” and the inhibition at 10 µM (CYP2C8) was 92.5%. For the same compound, the Activity (A375/TxR [21]) was “Active”, the t1/2 [22] was greater than 240 min and the Activity [23] was “Non-Toxic”. For the same compound, the inhibition at 10 µM (CYP3A [24]) was 51.8% and the Activity (A375/TxR [25]) was “Dose-Dependent Effect”.
